Counter-ions that a name gives are not always drawn. Each block holds one molecule with its values, some of them ahead of it.
Experiments:
[1] = Likelihood of formation of insoluble aggregate with free base among counter ions; format: physicochemical; details: estimated from the inventors' examinations
[2] = Examination of antioxidant: storage at 60° C. (Test example 3); format: physicochemical
Procedure: In this examination, hydrochloride of the compound of formula (I) was used instead of SUN N8075. Approximately 400 mg of the hydrochloride of compound of formula (I) were precisely weighed and water was added to make the volume precisely 200 mL, which was provided as an original drug aqueous solution.
Approximately 400 mg of each antioxidant shown in Table 3 below were precisely weighed and dissolved by adding 20 mL of water. As to butylhydroxy anisole, 10.7 mg was precisely weighed and dissolved in 100 mL of water.
15 mL of each antioxidant solution was mixed with 15 mL of solution of drug substance to prepare a stock sample (in the sample, the concentration of the hydrochloride compound of formula (I) corresponds to 1 mg/mL and the concentration of antioxidant corresponds to 10 mg/mL).
After dispensing each stock sample into 15 brown glass ampules, the ampules were sealed and stored at 60° C.
As a control sample, 15 mL of solution of drug substance added with 15 mL of water were stored in the same condition.
The remaining three ampules for each sample solution were used for measurement at the start of tests.
Each prepared sample was sampled in time series. 1 mL of sample solution was precisely measured, change in appearance and solution state of the sample were observed, and then added with methanol to make the volume precisely 10 mL. For this solution, residual percentage of the hydrochloride of compound of formula (I) was calculated by HPLC method. Furthermore, the pH value of the sample solution remaining after completion of test was measured.

[3] = Butyl hydroxy anisole, at start
[4] = L-Cysteine HCl monohydrate 10 mg/mL, 1 day
[5] = L-Cysteine HCl monohydrate 10 mg/mL, 7 days
[6] = L-Cysteine HCl monohydrate 10 mg/mL, 21 days
[7] = L-Cysteine HCl monohydrate 10 mg/mL, at start
[8] = Sodium bisulfite 10 mg/mL, 1 day
[9] = Sodium bisulfite 10 mg/mL, 7 days
[10] = Sodium bisulfite 10 mg/mL, 21 days
[11] = Sodium bisulfite 10 mg/mL, at start
[12] = Sodium edetate 10 mg/mL, 7 days
[13] = Sodium edetate 10 mg/mL, 21 days
[14] = Sodium edetate 10 mg/mL, at start
[15] = Sodium pyrosulfite 10 mg/mL, 1 day
[16] = Sodium pyrosulfite 10 mg/mL, 7 days
[17] = Sodium pyrosulfite 10 mg/mL, 21 days
[18] = Sodium pyrosulfite 10 mg/mL, at start
[19] = α-Thioglycerol 10 mg/mL, 7 days
[20] = α-Thioglycerol 10 mg/mL, 21 days
[21] = α-Thioglycerol 10 mg/mL, at start

Compound: Cc1cc(OC[C@@H](O)CN2CCN(c3ccc(Cc4ccc(F)cc4)cc3)CC2)c(C)c(C)c1N [compound represented by the formula (I), (2S)-1-(4-amino-2,3,5-trimethylphenoxy)-3-{4-[4-(4-fluorobenzyl)phenyl]-1-piperazinyl}-2-propanol]
Order of likelihood of formation of insoluble aggregate with free base among various counter ions [1]: sulfate ion>sulfite (or bisulfite ion)>>phosphate ion (or hydrogen phosphate ion, dihydrogen phosphate ion)>acetate ion>chloride ion>methane sulfonate ion

Appearance ([2]; Butyl hydroxy anisole (10.7 mg in 100 mL stock), at start): colorless and clear
Appearance ([2]; Butyl hydroxy anisole, 1 day): colorless and clear
Purity ([2]; Butyl hydroxy anisole, 1 day): 96.8%
Residual degree ([2]; Butyl hydroxy anisole, 1 day): 99.2%
pH ([2]; Butyl hydroxy anisole, 1 day): 2.8
Appearance ([2]; Butyl hydroxy anisole, 7 days): colorless and clear
Purity ([2]; Butyl hydroxy anisole, 7 days): 80.6%
Residual degree ([2]; Butyl hydroxy anisole, 7 days): 80.3%
pH ([2]; Butyl hydroxy anisole, 7 days): 2.8
Appearance ([2]; Butyl hydroxy anisole, 21 days): Brown precipitates
Purity ([2]; Butyl hydroxy anisole, 21 days): 53.5%
Residual degree ([2]; Butyl hydroxy anisole, 21 days): 41.2%
pH ([2]; Butyl hydroxy anisole, 21 days): 2.8
Purity [2, 3]: 100%
Residual degree [2, 3]: 100%
pH [2, 3]: 2.8
Appearance ([2]; Citric acid 10 mg/mL, 1 day): colorless and clear
Purity ([2]; Citric acid 10 mg/mL, 1 day): 99.2%
Residual degree ([2]; Citric acid 10 mg/mL, 1 day): 98.0%
pH ([2]; Citric acid 10 mg/mL, 1 day): 2.2
Appearance ([2]; Citric acid 10 mg/mL, 7 days): colorless and clear
Purity ([2]; Citric acid 10 mg/mL, 7 days): 88.6%
Residual degree ([2]; Citric acid 10 mg/mL, 7 days): 89.8%
pH ([2]; Citric acid 10 mg/mL, 7 days): 2.2
Appearance ([2]; Citric acid 10 mg/mL, 21 days): colorless and clear
Purity ([2]; Citric acid 10 mg/mL, 21 days): 63.6%
Residual degree ([2]; Citric acid 10 mg/mL, 21 days): 57.3%
pH ([2]; Citric acid 10 mg/mL, 21 days): 2.2
Appearance ([2]; Citric acid 10 mg/mL, at start): colorless and clear
Purity ([2]; Citric acid 10 mg/mL, at start): 100%
Residual degree ([2]; Citric acid 10 mg/mL, at start): 100%
pH ([2]; Citric acid 10 mg/mL, at start): 2.1
Appearance [2, 4]: colorless and clear
Purity [2, 4]: 100%
Residual degree [2, 4]: 97.9%
pH [2, 4]: 1.7
Appearance [2, 5]: colorless and clear
Purity [2, 5]: 99.7%
Residual degree [2, 5]: 100.6%
pH [2, 5]: 1.7
Appearance [2, 6]: colorless and clear
Purity [2, 6]: 99.6%
Residual degree [2, 6]: 94.0%
pH [2, 6]: 1.7
Appearance [2, 7]: colorless and clear
Purity [2, 7]: 100%
Residual degree [2, 7]: 100%
pH [2, 7]: 1.7
Appearance ([2]; No additive, 1 day): colorless and clear
Purity ([2]; No additive, 1 day): 98.4%
Residual degree ([2]; No additive, 1 day): 98.7%
pH ([2]; No additive, 1 day): 2.8
Appearance ([2]; No additive, 7 days): colorless and clear
Purity ([2]; No additive, 7 days): 82.5%
Residual degree ([2]; No additive, 7 days): 84.4%
pH ([2]; No additive, 7 days): 3.0
Appearance ([2]; No additive, 21 days): colorless and clear
Purity ([2]; No additive, 21 days): 51.2%
Residual degree ([2]; No additive, 21 days): 43.1%
pH ([2]; No additive, 21 days): 2.9
Appearance ([2]; No additive, at start): colorless and clear
Purity ([2]; No additive, at start): 100%
Residual degree ([2]; No additive, at start): 100%
pH ([2]; No additive, at start): 2.8
Appearance [2, 8]: colorless and clear
Purity [2, 8]: 98.5%
Residual degree [2, 8]: 99.9%
pH [2, 8]: 3.2
Appearance [2, 9]: colorless and clear
Purity [2, 9]: 98.3%
Residual degree [2, 9]: 97.3%
pH [2, 9]: 2.8
Appearance [2, 10]: colorless and clear
Purity [2, 10]: 98.4%
Residual degree [2, 10]: 91.2%
pH [2, 10]: 2.8
Appearance [2, 11]: colorless and clear
Purity [2, 11]: 97.2%
Residual degree [2, 11]: 100%
pH [2, 11]: 3.5
Appearance ([2]; Sodium edetate 10 mg/mL, 1 day): colorless and clear
Purity ([2]; Sodium edetate 10 mg/mL, 1 day): 97.9%
Residual degree ([2]; Sodium edetate 10 mg/mL, 1 day): 94.1%
pH ([2]; Sodium edetate 10 mg/mL, 1 day): 3.8
Appearance [2, 12]: colorless and clear
Purity [2, 12]: 81.2%
Residual degree [2, 12]: 68.5%
pH [2, 12]: 4.1
Appearance [2, 13]: colorless and clear
Purity [2, 13]: 53.8%
Residual degree [2, 13]: 31.9%
pH [2, 13]: 4.2
Appearance [2, 14]: colorless and clear
Purity [2, 14]: 100%
Residual degree [2, 14]: 100%
pH [2, 14]: 4.0
Appearance [2, 15]: colorless and clear
Purity [2, 15]: 98.2%
Residual degree [2, 15]: 102.4%
pH [2, 15]: 3.1
Appearance [2, 16]: colorless and clear
Purity [2, 16]: 97.3%
Residual degree [2, 16]: 97.2%
pH [2, 16]: 2.9
Appearance [2, 17]: colorless and clear
Purity [2, 17]: 97.6%
Residual degree [2, 17]: 89.8%
pH [2, 17]: 2.7
Appearance [2, 18]: colorless and clear
Purity [2, 18]: 94.4%
Residual degree [2, 18]: 100%
pH [2, 18]: 3.6
Appearance ([2]; α-Thioglycerol 10 mg/mL, 1 day): colorless and clear
Purity ([2]; α-Thioglycerol 10 mg/mL, 1 day): 100%
Residual degree ([2]; α-Thioglycerol 10 mg/mL, 1 day): 97.5%
pH ([2]; α-Thioglycerol 10 mg/mL, 1 day): 2.8
Appearance [2, 19]: colorless and clear
Purity [2, 19]: 99.2%
Residual degree [2, 19]: 97.1%
pH [2, 19]: 2.8
Appearance [2, 20]: colorless and clear
Purity [2, 20]: 96.8%
Residual degree [2, 20]: 89.0%
pH [2, 20]: 2.8
Appearance [2, 21]: colorless and clear
Purity [2, 21]: 100%
Residual degree [2, 21]: 100%
pH [2, 21]: 2.7
Compound: Cc1cc(OC[C@@H](O)CN2CCN(c3ccc(Cc4ccc(F)cc4)cc3)CC2)c(C)c(C)c1N [hydrochloride of compound of formula (I)]

Source: patent publication US20100004267A1, “LIQUID PREPARATION” (ASUBIO PHARMA CO., LTD., priority 2006, published 2010)
